From US9606124B2, “Methods of detecting and treating stem-cell containing solid tumors” (The Regents of The University of Michigan, priority 2008, dated 2017) come the findings set out here.

Test [1] deals with ALDEFLUOR-positive population of SUM159 cell line. The test can be described thus: ALDEFLUOR assay on SUM159 cells in vitro (cancer stem cell population). The test is classed as cell-based, human. On the procedure: ALDEFLUOR Assay and Separation of the ALDH-positive Population by FACS. ALDH activity was assessed in 33 BCLs representing the main molecular subtypes of human breast cancer. The ALDEFLUOR kit (StemCell technologies, Durham, N.C., USA) was used to isolate the population with high ALDH enzymatic activity (17). Cells obtained from subconfluent cell lines after trypsinization or from freshly dissociated xenografts were suspended in ALDEFLUOR assay buffer containing ALDH substrate (BAAA, 1 μmol/l per 1×10^6 cells) and incubated for 40 minutes at 37° C. In each experiment a sample of cells was stained under identical conditions with 50 mmol/L of diethylaminobenzaldehyde (DEAB), a specific ALDH inhibitor, as negative control. Flow cytometry sorting was conducted using a FACStarPLUS (Becton Dickinson). ALDEFLUOR fluorescence was excited at 488 nm and detected using standard fluorescein isothiocyanate (FITC) 530/30 band pass filter. For xenotransplanted tumors, incubation with an anti-H2Kd antibody (BD biosciences, 1/200, 20 min on ice) followed by a secondary antibody labeled with phycoerythrin (Jackson labs, 1/250, 20 min on ice) was used to eliminate cells of mouse origin. The sorting gates were established using PI stained cells for viability, ALDEFLUOR-stained cells treated with DEAB, and those stained with secondary antibody alone. Prior to RNA profiling or NOD/SCID mice injection, the purity of sorted populations was checked using double sorting of 10,000 ALDEFLUOR-positive and negative cells in BrCa-MZ-01 and SUM159 cell lines.
ALDEFLUOR assay. […] In order to eliminate cells of mouse origin from the xenotransplanted tumors, cell population was stained with an anti-H2Kd antibody (BD biosciences, 1/200, 20 min on ice) followed by staining with a secondary antibody labeled with phycoerythrin (PE) (Jackson labs, 1/250, 20 min on ice).

The test system of test [2] is FAK Tyr397 and AKT Ser473 phosphorylation. The test can be described thus: Western blotting of FAK/AKT activation in HCC1954. The test is classed as cell-based, human. The settings on record: 100 nM, two days. On the procedure:
(§1) Western blotting. Cells were lysed in a laemmli buffer and loaded onto SDS-polyacrylamide gels. Blots were incubated with the respective primary antibodies diluted in TBST (containing 0.1% Tween20 and 2% BSA) either overnight at 4o, or 2 hours at room temperature. Blots were washed and incubated with appropriate secondary antibodies (GE Healthcare, UK) and detected using SuperSignal West Pico Chemiluminescent Substrate (Pierce).

Test [3] has as its system phospho-FAK and phospho-AKT. Briefly: Immunofluorescence staining of p-FAK and p-AKT in SUM159 cells. The format is cell-based, human. The settings on record: for phospho-FAK and phospho-AKT expression (immunofluorescence): sorted CXCR1-positive cells. On the procedure:
The non-treated SUM159 cells presented 80% of cells positive in the cytoplasm for FOXOA3. […] The change in FOXOA3 cellular localation from the cytoplasm to the nucleus indicates an activation of FOXOA3 protein.
Immunostaining. For immunofluorescent staining, sorted CXCR1-positive cells were fixed with 95% methanol at −20° C. for 10 minutes. Cells were rehydrated in PBS and incubated with respective antibodies at room temperature for 1 hour. Primary antibodies used were P-FAK (1:50, Cell Signaling Technology), P-AKT (1:300, Cell Signaling Technology), and FOXO3a (1:250, Cell Signaling Technology). Slides were then washed and incubated 30 minutes with PE conjugated secondary antibodies (Jackson labs). The nuclei were counterstained with DAPI/antifade (Invitrogen) and coverslipped. […] Immunohistochemistry for the detection of ALDH1 (1:100, BD biosciences), P-FAK, P-AKT, FOXO3a expression was done on paraffin section (Ginestier et al. Am. J Pathol. 161:1223-1233, herein incorporated by reference in its entirety). Staining was done utilizing the Histostainplus kit (Zymed laboratories). Diaminobenzidine (DAB) or 3-amino-9-ethylcarbazole (AEC) was used as chromogen and sections were counterstained with hematoxylin.

The subject of test [4] is HCC1954 PTEN-siRNA cells. The test can be described thus: Repertaxin on HCC1954 PTEN-siRNA cells (western, MTT). The test is classed as cell-based, human. How it is done: Cell viability. […] Nuclei were counterstained with DAPI/antifade (Invitrogen).
as §1
Virus infection. […] All lentiviral constructs were prepared by the University of Michigan Vector. An adenoviral construct for the overexpression of FAK (Ad-FAK-GFP) was also utilized (Luo et al. Cancer Res. 69:466-474, herein incorporated by reference in its entirety). Cells infection with different vectors was performed as previously described (Charafe-Jauffret et al. Cancer Res. 69:1302-1313, herein incorporated by reference in its entirety). Efficiency of infection was verified by measuring the percentage of DsRed or GFP expressing cells.

In test [5] the test system is CD44+/CD24- cell population of MC1, UM2, UM3 xenografts. Briefly: CD44+/CD24- cells in treated tumors (flow cytometry). On the set-up: species or system NOD/SCID mice. The settings on record: mouse, in vivo. How it is done: Animal model. […] Cells from these tumors were transplanted orthotopically in the humanized cleared fat-pad of NOD/SCID mice, without cultivation in vitro. […] 50,000 cells from each xenotransplants were injected in the humanized fat pad of NOD/SCID mice and monitored the tumor growth. […] The animals were euthanized when the tumors were approximately 1.5 cm in the largest diameter, to avoid tumor necrosis and in compliance with regulations for use of vertebrate animal in research. A portion of each fat pad injected was fixed in formalin and embedded in paraffin for histological analysis. The rest of the tumor cells were re-implantated into secondary NOD/SCID mice. Serial dilutions of cells were utilized for the re-implantation with injection of 10,000, 1,000, and 100 cells for each treated tumor.
Flow cytometry analysis. […] CD95/FAS staining were performed utilizing an anti-CD95 labeled APC (1:20, BD biosciences). […] Fresh cells were stained with 1 μg/ml PI (Sigma) for 5 min for viability.
A general note: A flow cytometer gives signals particle by particle.

In test [6] the test system is SUM159 cell line. Briefly: MTT assay, cell growth / cell viability of SUM159 cells.
Procedure: After 4 days of treatment, the effect on cell growth was analyzed using the MTT assay (FIG. 5A) and on the cancer stem cell population using the ALDEFLUOR assay (FIG. 5B).

Structures are written as SMILES. “Also recorded” adds a separate entry of the source.

For the compound `CC(C)Cc1ccc([C@@H](C)C(=O)NS(C)(=O)=O)cc1` [Repertaxin], the “percent of ALDEFLUOR-positive cells” value in test [1] (SUM159, repertaxin, repertaxin plus anti-FAS-ligand, FAS agonist) is reported as “massive decrease”. Also, the “proportion of ALDEFLUOR-positive cells” value in test [1] (SUM159, three days, repertaxin 100 nM, antibodies 10 μg/ml) is listed as “five-fold reduction; also recorded: significant reduction”. In test [1] (SUM159 adherent, 4 days of treatment), the “decrease of the ALDEFLUOR-positive population” value is recorded as 80%. Also, the “FAK Tyr397 and AKT Ser473 phosphorylation (western blot)” value was “decrease in FAK Tyr397 and AKT Ser473 phosphorylation” in test [2]; “decrease in FAK Tyr^397 and AKT Ser^473 phosphorylation” in test [2] (listed as repertaxin). Further, the “p-FAK and p-AKT (immunofluorescence)” value in test [3] (SUM159, 100 nM, 2 days) is given as “complete inactivation”. Also, the “phospho-FAK and phospho-AKT expression (immunofluorescence)” value is “disappearance of phospho-FAK” in test [3]; “dramatic decrease of phospho-FAK and phospho-AKT expression” in test [3] (listed as repertaxin). Moreover, the “FAK and AKT activity in HCC1954 PTEN-siRNA cells (western blot)” value in test [4] (100 nM, two days) is given as “PTEN deletion blocked the effect of repertaxin treatment”. The “cell viability (MTT) of HCC1954 PTEN-siRNA cells” value in test [4] (3 days of treatment) is on record as “developed resistance to repertaxin”. Besides, the “percent of CD44+/CD24- cells in residual tumors” value in test [5] is “reduction”. Besides, the viability at 0.1 µM in test [6] (Homo sapiens, SUM159, 120 h, read-out: cells remaining viable / cell viability (MTT)) worked out at 3%. Also, the “cell viability over time (one, three, five days)” value in test [6] (SUM159, repertaxin 100 nM) is “loss of cell viability beginning three days after treatment; also recorded: decrease in cell viability was observed after 3 days of treatment”.
